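Growth conditions: 96-well plates. Treatment: test compound, 48 hours, 5 concentrations. Analysis: linear interpolation between bracketing concentrations; unreached endpoints set to highest concentration. GI50 = concentration required for 50% inhibition of growth. The concentration for full growth arrest is given as TGI.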
Key:
Assay in all cases: DTP human tumour cell line panel, 48 h
[1] = test system: SF-268 CNS
[2] = test system: OVCAR-8 ovarian
[3] = test system: NCI-H23 lung
[4] = test system: HL-60(TB) leukemia
[5] = test system: SN12C renal
[6] = test system: IGROV1 ovarian
[7] = test system: UO-31 renal
[8] = test system: KM12 colon
[9] = test system: HOP-62 NSCLC
[10] = test system: 786-0 renal

| Compound | GI50 [1] [µM] | TGI [1] [µM] | GI50 [2] [µM] | TGI [2] [µM] | GI50 [3] [µM] | TGI [3] [µM] | GI50 [4] [µM] | TGI [4] [µM] | GI50 [5] [µM] | TGI [5] [µM] | GI50 [6] [µM] | TGI [6] [µM] | GI50 [7] [µM] | TGI [7] [µM] | GI50 [8] [µM] | TGI [8] [µM] | GI50 [9] [µM] | TGI [9] [µM] | GI50 [10] [µM] | TGI [10] [µM] |
| --- | --- | --- | --- | --- | --- | --- | --- | --- | --- | --- | --- | --- | --- | --- | --- | --- | --- | --- | --- | --- |
| Nc1cc(C(F)(F)F)c(-c2nc(N3CCOCC3)nc(N3CCOCC3)n2)cn1 | 0.476 | > 72.5 | 0.89 | > 66.1 | 0.446 | > 100 | 0.381 | > 84.1 | 0.416 | > 48.1 | 0.0916 | 0.528 | 0.111 | 2.08 | 0.835 | 59.9 | 0.643 | 16.2 | 0.482 | 6.33 |
| CC1=C(C(=O)Nc2ccc3[nH]ncc3c2)C(c2ccc(F)cc2)N=C(c2ccc(C(F)(F)F)nc2)N1 (stereo not given) | 10.7 | > 25 | 20.2 | > 25 | 12.8 | > 25 | 6.67 | > 25 | > 22.9 | > 25 | 5.66 | > 25 | 3.35 | 24.4 | 16.3 | > 25 | 10.1 | > 25 | 10.8 | > 25 |
| COc1cc(/C=C/c2cc(/C=C/c3ccc(O)c(OC)c3)n(C(=O)Nc3ccc(C)cc3)n2)ccc1O | 0.628 | 7.44 | 0.465 | 2.59 | 0.586 | 3.99 | 0.261 | 0.657 | 0.408 | > 29.9 | 0.667 | 3.94 | 0.272 | 1.72 | 0.345 | 3.18 | 0.759 | 2.5 | 0.412 | 1.81 |
| CN1CCN(C(=O)/C=C/c2ccc([N+](=O)[O-])o2)CC1 | 20.9 | 84.1 | 18.5 | > 100 | 8.49 | 22 | 10.7 | 34 | 13.8 | 27.9 | 10.8 | 36.4 | 13.4 | 30.1 | 24 | > 100 | 17.1 | 39.9 | 18.6 | 36.7 |
